Structures can show the parent of a compound that is named as a salt. Where two headings read alike, the source gives them in different places.
How the values were obtained:
[1] = molecular target: T1, SARS-CoV-2 PLpro (nsp3 1564–1878) (Severe acute respiratory syndrome coronavirus 2, UniProt P0DTD1); test: biochemical; design: FRET-quenched peptide (Pro3) cleavage by PLpro, 10 min pre-incubation, slope over 20 min, normalised to no-compound control; details: low concentration screen, read-out: % of control remaining
[2] = molecular target: T1, SARS-CoV-2 PLpro (nsp3 1564–1878); test: biochemical; design: FRET-quenched peptide (Pro3) cleavage by PLpro, 10 min pre-incubation, slope over 20 min, normalised to no-compound control; details: high concentration screen, read-out: % of control remaining

CCCN(CCN1CCN(c2ccccc2OC)CC1)C1CCc2ncsc2C1 (stereo not drawn) [ST-836 (hydrochloride)]
remaining activity at 1.25 µM ([1]; Well no.=8445): 89.3%
remaining activity at 3.75 µM ([2]; Well no.=8445): 92.2%

CC(C)(C)c1ccc(S(=O)(=O)NCc2ccc(C(=O)Nc3cccnc3)cc2)cc1 [STF-31]
remaining activity at 1.25 µM ([1]; Well no.=6059): 94.9%
remaining activity at 3.75 µM ([2]; Well no.=6059): 94.5%

Cc1cccc(Nc2nc(-c3ccncc3)cs2)c1 [STF-62247]
remaining activity at 1.25 µM ([1]; Well no.=4615): 102%
remaining activity at 3.75 µM ([2]; Well no.=4615): 106%

Cc1ccc(S(=O)(=O)Cc2nc(-c3ccc(C(=O)NCc4cccnc4)cc3)oc2C)cc1 [STF-118804]
remaining activity at 1.25 µM ([1]; Well no.=5552): 90.7%
remaining activity at 3.75 µM ([2]; Well no.=5552): 91.7%

O=C(NCc1ccco1)c1ccc2c(c1)N(Cc1c(F)cccc1Cl)C(=O)CS2 [STING agonist-1]
remaining activity at 1.25 µM ([1]; Well no.=8643): 102%
remaining activity at 3.75 µM ([2]; Well no.=8643): 103%

O=C(O)c1ccc2c3c1cccc3c(=O)n1c3ccccc3nc21 [STO-609]
remaining activity at 1.25 µM ([1]; Well no.=2658): 90%
remaining activity at 3.75 µM ([2]; Well no.=2658): 89.5%

CN(C)S(=O)(=O)c1ccc2c(c1)/C(=C/c1cc3c([nH]1)CCCC3)C(=O)N2 [SU6656]
remaining activity at 1.25 µM ([1]; Well no.=2500): 94.8%
remaining activity at 1.25 µM ([1]; Well no.=8074): 101%
remaining activity at 3.75 µM ([2]; Well no.=2500): 99.1%
remaining activity at 3.75 µM ([2]; Well no.=8074): 98.5%

COc1ccc2c(c1)/C(=C/c1cnc[nH]1)C(=O)N2 [SU9516]
remaining activity at 1.25 µM ([1]; Well no.=2660): 96.5%
remaining activity at 3.75 µM ([2]; Well no.=2660): 94.4%

Cc1[nH]c(/C=C2\C(=O)Nc3ccc(S(=O)(=O)N(C)c4cccc(Cl)c4)cc32)c(C)c1C(=O)N1CCN(C)CC1 [SU11274]
remaining activity at 1.25 µM ([1]; Well no.=8164): 95.8%
remaining activity at 3.75 µM ([2]; Well no.=8164): 94.4%

CCN(CC)CCNC(=O)c1c(C)[nH]c(/C=C2\C(=O)Nc3ccc(Cl)cc32)c1C [SU11652]
remaining activity at 1.25 µM ([1]; Well no.=2565): 93.6%
remaining activity at 3.75 µM ([2]; Well no.=2565): 93.7%

CN(C)c1ccc(/C=C2\C(=O)Nc3ccccc32)cc1 [SU 4312 - 3-[[4-(dimethylamino)phenyl]methylene]-1,3-dihydro-2H-indol-2-one]
remaining activity at 1.25 µM ([1]; Well no.=2430): 106%
remaining activity at 3.75 µM ([2]; Well no.=2430): 109%

CN(C)c1ccc(/C=C2\C(=O)Nc3ccccc32)cc1 [SU 4312]
remaining activity at 1.25 µM ([1]; Well no.=1179): 97.9%
remaining activity at 3.75 µM ([2]; Well no.=1179): 101%

Cc1c[nH]c(/C=C2\C(=O)Nc3ccccc32)c1CCC(=O)O [SU-5402]
remaining activity at 1.25 µM ([1]; Well no.=3037): 96.3%
remaining activity at 3.75 µM ([2]; Well no.=3037): 95.9%

CCCC[S+]([O-])c1sc2nc(-c3cccs3)cc(-c3ccccc3)c2c1N (stereo not drawn) [SW033291]
remaining activity at 1.25 µM ([1]; Well no.=8674): 101%
remaining activity at 3.75 µM ([2]; Well no.=8674): 97.5%

CCc1cc2c(=O)c(-c3nc4ccccc4s3)coc2c(CN2CCCCC2)c1O [SZL P1-41]
remaining activity at 1.25 µM ([1]; Well no.=6694): 103%
remaining activity at 3.75 µM ([2]; Well no.=6694): 102%

C[C@H](NCc1ccc(OCc2cccc(F)c2)cc1)C(N)=O [Safinamide mesylate salt]
remaining activity at 1.25 µM ([1]; Well no.=5442): 89.5%
remaining activity at 3.75 µM ([2]; Well no.=5442): 94.5%

CC(C)(C)NCC(O)c1ccc(O)c(CO)c1 (stereo not drawn) [Salbutamol (hemisulfate)]
remaining activity at 1.25 µM ([1]; Well no.=7577): 95.6%
remaining activity at 3.75 µM ([2]; Well no.=7577): 96.7%

CC(C)(C)NCC(O)c1ccc(O)c(CO)c1 (stereo not drawn) [Salbutamol]
remaining activity at 1.25 µM ([1]; Well no.=1366): 101%
remaining activity at 3.75 µM ([2]; Well no.=1366): 101%

CC[C@@H](C(=O)[C@@H](C)[C@@H](O)[C@H](C)[C@@H]1O[C@@H]([C@@H](CC)C(=O)O)CC[C@@H]1C)[C@H]1O[C@]2(C=C[C@@H](O)[C@]3(CC[C@@](C)([C@H]4CC[C@](O)(CC)[C@H](C)O4)O3)O2)[C@H](C)C[C@@H]1C [Salinomycin]
remaining activity at 1.25 µM ([1]; Well no.=3499): 104%
remaining activity at 3.75 µM ([2]; Well no.=3499): 102%

CC(C)=CCC/C(C)=C/CC/C(C)=C/CSc1ccccc1C(=O)O [Salirasib]
remaining activity at 1.25 µM ([1]; Well no.=6668): 104%
remaining activity at 3.75 µM ([2]; Well no.=6668): 105%

OCc1cc(C(O)CNCCCCCCOCCCCc2ccccc2)ccc1O (stereo not drawn) [Salmeterol]
remaining activity at 1.25 µM ([1]; Well no.=1414): 98.7%
remaining activity at 3.75 µM ([2]; Well no.=1414): 99.5%

COc1cc2c(cc1O)CCN[C@@H]2C [Salsoline]
remaining activity at 1.25 µM ([1]; Well no.=3715): 100%
remaining activity at 3.75 µM ([2]; Well no.=3715): 102%

O=C(/C=C/c1ccccc1)NC(NC(=S)Nc1cccc2cccnc12)C(Cl)(Cl)Cl (stereo not drawn) [Salubrinal]
remaining activity at 1.25 µM ([1]; Well no.=4877): 98.9%
remaining activity at 3.75 µM ([2]; Well no.=4877): 99.5%

C[n+]1cc2c3c(ccc2c2ccc4cc5c(cc4c21)OCO5)OCO3 [Sanguinarine (chloride)]
remaining activity at 1.25 µM ([1]; Well no.=6636): 99.4%
remaining activity at 3.75 µM ([2]; Well no.=6636): 98.9%

C[n+]1cc2c3c(ccc2c2ccc4cc5c(cc4c21)OCO5)OCO3 [Sanguinarine chloride]
remaining activity at 1.25 µM ([1]; Well no.=1458): 87.2%
remaining activity at 3.75 µM ([2]; Well no.=1458): 86.2%

C[n+]1cc2c3c(ccc2c2ccc4cc5c(cc4c21)OCO5)OCO3 [Sanguinarine]
remaining activity at 1.25 µM ([1]; Well no.=3779): 94.3%
remaining activity at 3.75 µM ([2]; Well no.=3779): 90.1%

CC1=C2[C@H]3OC(=O)[C@@H](C)[C@@H]3CC[C@@]2(C)C=CC1=O [Santonin]
remaining activity at 1.25 µM ([1]; Well no.=3717): 90%
remaining activity at 3.75 µM ([2]; Well no.=3717): 95.8%

CCCCCCCCCCCCCCCC(=O)Nc1ccn([C@@H]2O[C@H](CO)[C@@H](O)[C@@H]2C#N)c(=O)n1 [Sapacitabine]
remaining activity at 1.25 µM ([1]; Well no.=7908): 98.8%
remaining activity at 3.75 µM ([2]; Well no.=7908): 102%

O=C(O)c1cn(-c2ccc(F)cc2)c2cc(N3CCNCC3)c(F)cc2c1=O [Sarafloxacin]
remaining activity at 1.25 µM ([1]; Well no.=2241): 101%
remaining activity at 3.75 µM ([2]; Well no.=2241): 101%

CNCC(=O)O [Sarcosine]
remaining activity at 1.25 µM ([1]; Well no.=6727): 103%
remaining activity at 3.75 µM ([2]; Well no.=6727): 102%

COc1cccc(CCc2ccccc2OCC(CN(C)C)OC(=O)CCC(=O)O)c1 (stereo not drawn) [Sarpogrelate (hydrochloride)]
remaining activity at 1.25 µM ([1]; Well no.=6228): 106%
remaining activity at 3.75 µM ([2]; Well no.=6228): 96.1%

C[C@H]1CC[C@@]2(OC1)O[C@H]1C[C@H]3[C@@H]4CC[C@@H]5C[C@@H](O)CC[C@]5(C)[C@H]4CC[C@]3(C)[C@H]1[C@@H]2C [Sarsasapogenin]
remaining activity at 1.25 µM ([1]; Well no.=3102): 95%
remaining activity at 3.75 µM ([2]; Well no.=3102): 92.8%

N#C[C@@H]1C[C@@H]2C[C@@H]2N1C(=O)[C@@H](N)C12CC3CC(CC(O)(C3)C1)C2 [Saxagliptin hydrate]
remaining activity at 1.25 µM ([1]; Well no.=8254): 104%
remaining activity at 3.75 µM ([2]; Well no.=8254): 102%

COc1cc2c(c(OC)c1OC)-c1c(cc(OC)c(OC)c1OC)C[C@](C)(O)[C@@H](C)C2 [Schisandrin]
remaining activity at 1.25 µM ([1]; Well no.=5408): 95.6%
remaining activity at 3.75 µM ([2]; Well no.=5408): 101%

C=C[C@](C)(O)CC[C@@H]1[C@@]2(C)CCCC(C)(C)[C@@H]2CC[C@@]1(C)O [Sclareol]
remaining activity at 1.25 µM ([1]; Well no.=3388): 91.2%
remaining activity at 3.75 µM ([2]; Well no.=3388): 96.1%

Reference: paper PMC8286840, “Identifying SARS-CoV-2 antiviral compounds by screening for small molecule inhibitors of Nsp3 papain-like protease” (Biochemical Journal, 2021)
